# Entries after “also recorded” stand apart in the source; their conditions may differ.
# What was measured:
# Type in all cases: in vivo
# C. rodentium = test: Infectious colitis: ICA given to mice infected with C. rodentium
# Description: Indoles were assessed in models of epithelial barrier integrity and immune regulation in mammals. Pathogenic E. coli (EPEC and EHEC) and the related mouse pathogen C. rodentium encode virulence factors and a Type III secretion system through the LEE pathogenicity island, and cause diarrhea and colitis. In vivo, C. rodentium causes infectious colitis, characterized by neutrophil and T cell infiltration into the lamina propria, transient increases in IL-22, epithelial barrier breakdown, crypt hyperplasia (an indicator of repair), and dissemination of bacteria throughout the body. […] Thus, indole derivatives, produced via commensal E. coli TnaA, mitigate pathogen infection. ICA was administered to mice that were infected with C. rodentium.
# [1] = test system: GvHD in B10.BR mice administered TCDBM+T cells; test: GvHD model: 11Gy TBI B10.BR mice given TCDBM plus 3×10^6 allo-MHC mismatched C57Bl/6 T cells
# Description: B6,B10.BR allo MHC mismatched transplants, administering 3×10^6 MHC mismatched donor T cells following myeloablative irradiation with 11Gy that injures gut epithelia. […] ICA (150 mg/kg/d) p.o. QD.
# The gut microbiota contribute to GvHD, yet some Lactobacillus species, which produce ICA and related molecules, mitigate GvHD. Thus, depending on the composition of the microbiota, molecules derived from it might protect from GvHD or exacerbate it. ICA might limit GvHD, by regulating barrier integrity. A myeloablative dose of total body irradiation (TBI) (11Gy) was administered to B10.BR mice, an established murine model of GvHD, in which followed by transplantation of T cell depleted bone marrow (TCDBM) plus/or minus 3×10^6 allo-MHC mismatched T cells all from donor C57Bl/6 mice. Mice administered TCDBM+T cells consistently developed GvHD, increased apoptosis and crypt hyperplasia in the colon (e.g. FIG. 4C), bacterial dissemination to mesenteric lymph nodes (FIG. 4B), increased Th17 responses, and 90% lethality by 30 days (FIG. 4A). […] Thus, ICA protects against GvHD.
# [2] = test system: GvHD in B10.BR (H2k) mice transplanted with TCD-BM+T cells; test: GvHD model: lethally irradiated B10.BR mice given TCD-BM plus 2×10^6 B6 T cells, daily ICA gavage
# Description: Lethally irradiated B10.BR (H2k) mice were transplanted with 3×10^6 T cell depleted bone marrow cells (TCD-BM) alone or the combination of TCD-BM plus 2×10^6 purified T cells from B6 (H2b) donor mice. Mice received daily gavage with 100 mg/kg or 150 mg/kg ICA or vehicle through day 38 post-transplant. Survival and clinical manifestations of GvHD were monitored through day 62. Histopathology of the gut, cytokines in serum and colon homogenates, intracellular cytokine staining of donor T-cells and bacterial counts in mesenteric lymph nodes (using blood agar plates) were measured in a separate cohort of experimental mice euthanized on day 20. Additionally, a secondary transplant was conducted to test the allo-proliferative capacity (in vivo CFSE dilution assay) and GvHD activity of T-cells from spleens of mice in the TCD-BM+T cells+150 mg/kg ICA group that survived to day 62, compared to B6 T cells, in combination with fresh B6 TCD-BM, in B10.BR recipients.
# They were fed vehicle, 100 mg/kg/day of ICA, or 150 mg/kg/day of ICA by oral gavage. Only 7% of the recipients of TCD-BM+T cells treated with vehicle only survived to day 46.
# [3] = test system: radiation-induced enteritis in mice; test: Radiation enteritis: 12Gy TBI without BM transplant
# Excerpt: Mice were subjected to 12Gy TBI without BM transplant, a lethal model in which most animals succumb to radiation-induced enteritis by about 7 days post-irradiation (p.i.), as opposed to hematopoietic failure at about 14 days p.i. […] (FIG. 5C). Thus, ICA reduced the death rate of both colonic and hematopoietic stem cells. […] While reduced intestinal damage and improved repair likely accounts at least in part for initial improvement in GvHD animals, additional effects on immune tolerance were also evident, but only over very long periods of administration (>3 months).
# [4] = mice infected with C. rodentium
# [5] = ICA-treated recipients of TCD-BM+T cells
structure (smiles),measurement,setting,value
"O=Cc1c[nH]c2ccccc12 [ICA, indole-3-carboxaldehyde]",survival,"C. rodentium; ICA 150 mg/kg/d p.o., C. rodentium infected MyD88−/− mice, compared to vehicle",enhances survival
same,barrier integrity,C. rodentium; [4],maintained barrier integrity
same,survival,C. rodentium; [4],prolonged survival
same,bacterial dissemination to mesenteric lymph nodes,[1]; ICA p.o. 150 mg/kg QD,abrogated
same,colon damage,[1]; ICA p.o. 150 mg/kg QD,abrogated
same,effect on liver GvHD,[1]; ICA p.o. 150 mg/kg QD,without effect
same,animals in which weight loss and death were prevented,"[1]; ICA p.o. 150 mg/kg QD, animals receiving TCDBM+T cells",90%
same,tolerance of donor C57Bl/6 T cells to B10.BR antigens,[1]; after long-term treatment (50 days),irreversibly and permanently tolerant
same,response of donor T cells to allo-antigens other than B10.BR or C57Bl/6,"[1]; after long-term treatment (50 days), upon secondary transplantation",remain responsive
same,survival of mice with transplanted allogeneic T cells,[1]; untreated animals all succumbed to GvHD,90%
same,survival of recipients of TCD-BM+T cells,"[2]; 100 mg/kg/day ICA oral gavage, at day 52, p=0.009",20%
same,survival of recipients of TCD-BM+T cells,"[2]; 150 mg/kg/day ICA oral gavage, p<0.001",83%
same,levels of inflammatory cytokines,[2]; [5],decreased levels of inflammatory cytokines
same,thymopoiesis,[2]; [5],improved thymopoiesis
same,GvHD activity of recovered T cells in secondary B10.BR recipients,[2]; T cells recovered at day 62 from ICA-treated recipients,lack of GvHD activity
same,proliferation of CFSE-stained T cells in secondary transplant,"[2]; T cells recovered at day 62 from ICA-treated recipients, secondary B10.BR recipients",reduced proliferation
same,"GvHD mortality / survival, in words","[2]; daily doses of ICA, 100 or 150 mg/kg/day",improved survival in a dose-dependent manner; also recorded: reduces GvHD mortality in a dose-dependent manner
same,engraftment by allogeneic donor bone marrow,[2]; fed to transplant recipients for the first few weeks after transplant,allows normal engraftment
same,tolerability / toxicity,[2]; recipients of BM grafts without GvHD-causing T-cells,well tolerated without serious toxicity
same,"GvHD pathology, histological analysis of colonic tissue",[2]; vs vehicle-treated control animals,marked reduction of GvHD pathology
same,bacterial colonization of mesenteric lymph nodes (MLN),"[2]; vs vehicle-treated control animals, p<0.01",decreased bacterial colonization; also recorded: reduce bacterial colonization
same,mean survival time,"[3]; 12Gy TBI without BM transplant, extended from 7 days",12 days p.i.
same,apoptotic cells in the colon,[3]; at 6 hr p.i.,fewer apoptotic cells; also recorded: decrease
same,hematopoietic cells in the marrow,[3]; at 4 days p.i.,increased numbers; also recorded: enhances survival of hematopoietic progenitors
same,"survival from radiation, in words",[3]; no BM transplant,promotes survival

# Source: patent US10154989B2, “Methods of managing graft versus host disease (GvHD) using indole carboxyaldehydes or derivatives thereof” (Emory University, priority 2015, dated 2018)
